Results on two compounds are retold here after patent publication US20250179193A1, “TREATMENT WITH AN ANTIBODY THAT BINDS EGFR AND CMET” (MERUS N.V., priority 2022, published 2025).

For data set [1], the system named is NSCLC CDX model HCC827-ER1 (EGFR exon 19 deletion E746-A750). The note with it: mouse, in vivo. As to the method:
Body weights were measured twice per week after randomization.

In another data set the test system is cMET than EGFR. The note with it: Moores et al. (2016); cited from earlier work.

In the case of `C=CC(=O)Nc1cc(Nc2nccc(-c3cn(C)c4ccccc34)n2)c(OC)cc1N(C)CCN(C)C` [Osimertinib], in data set [1], the absolute body weight entry is “lower compared to Groups 1 and 2”.
With “JNJ-61186372: bispecific cMET×EGFR antibody produced by controlled Fab-arm exchange (Moores et al 2016)”, in the data set on cMET than EGFR, the “affinity imbalance, greater affinity for cMET than EGFR” value was “approximately 40 ×”.
